Counter-ions that a name gives are not always drawn. Like-named read-outs stand apart in the source and are kept apart here.
Assays:
[1] = test system: human telomeric sequence F21T G-quadruplex; assay: FRET melting experiments, F21T; type: binding; conditions: K+ conditions
Description: (§1) These were performed with dual-labelled oligonucleotides mimicking the Plasmodium telomeric sequences FPf1T [FAM-5′(GGGTTTA)3-GGG3′-TAMRA] and FPf8T [FAM-5′ (GGGTTCA)3GGG3′-TAMRA], the Trypanosoma 9 and 11 chromosomic sequence FTrypBT (also named FEBR1T) [FAM-5′[…]3′-TAMRA], the human telomeric sequence F21T [FAM-(GGGTTA)3-GGG3′-TAMRA], and the human duplex sequence FdxT [FAM5′-[…]-hexaethyleneglycol-[…]3′-TAMRA][51]^,[52]. The oligonucleotides were pre-folded in 10 mM lithium cacodylate buffer (pH 7.2), with 10 mM KCl and 90 mM LiCl (K^+condition). The FAM emissions were recorded at 516 nm using a 492-nm excitation wavelength in the absence and presence of a single compound as a function of temperature (25–95 °C) in 96-well microplates by using a Stratagene MX3000P real-time PCR device at a rate of 1 °C·min^−1. Data were normalised between 0 and 1, and the required temperature for half-denaturation of oligonucleotides corresponding to the emission value of 0.5 was taken as the Tm. […] For each compound, three independent experiments were carried out.

[2] = test system: human duplex sequence FdxT; assay: FRET melting experiments, FdxT duplex control; type: binding; conditions: K+ conditions
Description: as §1

[3] = test system: L. donovani (MHOM/IN/00/DEVI) promastigotes; assay: In vitro antileishmanial activity, MTT assay on promastigotes; type: cell-based; conditions: Leishmania donovani, 72 h incubation, ≥10 = no activity noted at the highest concentration tested
In short: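 Log-phase L. donovani MHOM/IN/00/DEVI promastigotes (10^6/ml, Schneider's + 20% FCS) were exposed to graded compound concentrations (DMSO <0.5% v/v) for 72 h at 27 °C, in duplicate. Growth measured by MTT reduction (4 h, A570 nm); IC50 obtained by regression.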

[4] = test system: Plasmodium telomeric sequence FPf1T G-quadruplex; assay: FRET melting experiments, FPf1T; type: binding, P. falciparum; conditions: K+ conditions
Description: as §1

[5] = test system: T. brucei brucei AnTat 1.9; assay: In vitro antitrypanosomal activity, Alamar Blue assay; type: cell-based; conditions: Trypanosoma brucei; slender bloodstream trypomastigotes, AnTat 1.9 strain; read-out: Trypanosoma brucei brucei IC50 values, Trypanos Antat 1.9
In short: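 Bloodstream parasites (2000/well) in supplemented MEM with 20% horse serum exposed to compound in duplicate for 69 h at 37 °C, then Alamar Blue added for 5 h; fluorescence read at ex 530/em 590 nm. IC50 by nonlinear regression, from three independent experiments.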

[6] = test system: Plasmodium telomeric sequence FPf8T G-quadruplex; assay: FRET melting experiments, FPf8T; type: binding, P. falciparum; conditions: K+ conditions
Description: as §1

[7] = test system: P. falciparum CQ-sensitive strain 3D7; assay: In vitro antiplasmodial activity, SYBR Green I fluorescence-based method, strain 3D7; type: cell-based; conditions: Plasmodium falciparum, read-out: P. falciparum strains IC50 values, 3D7
In short: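 P. falciparum 3D7 and W2 cultured in human erythrocytes in RPMI with 0.5% Albumax I at 37 °C, exposed 48 h to compounds tested […]. Parasite DNA read by SYBR Green I fluorescence (ex 485/em 535 nm); IC50 by non-linear regression, mean of three independent experiments.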

[8] = Cytotoxicity evaluation, MTT; type: cell-based, human; conditions: human
In short: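 HepG2 hepatocarcinoma cells exposed to compound in duplicate, then viability measured by MTT reduction (0.5 mg/ml), formazan dissolved in DMSO and read at 570 nm against 630 nm. Viability expressed as percent of untreated cells; CC50 taken from dose-response curve, doxorubicin as positive control.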

[9] = test system: Trypanosoma 9 and 11 chromosomic sequence FTrypBT (FEBR1T) G-quadruplex; assay: FRET melting experiments, FtrypBT; type: binding, T. brucei brucei; conditions: K+ conditions
Description: as §1

[10] = test system: P. falciparum CQ-resistant strain W2; assay: In vitro antiplasmodial activity, SYBR Green I fluorescence-based method, strain W2; type: cell-based; conditions: Plasmodium falciparum, read-out: P. falciparum strains IC50 values, W2
Description: The in vitro antiplasmodial activities were tested over concentrations ranging from […] against culture-adapted P. falciparum reference strains 3D7 and W2. […] The parasites were cultivated in RPMI medium (Sigma-Aldrich, Lyon, France) supplemented with 0.5% Albumax I (Life Technologies Corporation, Paisley, UK), hypoxanthine (Sigma-Aldrich), and gentamicin (Sigma-Aldrich) with human erythrocytes and were incubated at 37 °C in a candle jar, as described previously[43] .The P. falciparum drug susceptibility test was carried out in 96-well flat-bottom sterile plates in a final volume of 250 µl. After 48 h incubation period with the drugs, quantities of DNA in treated and control cultures of parasites in human erythrocytes were quantified using the SYBR Green I (Sigma-Aldrich) fluorescence-based method[44]^,[45]. Briefly, after incubation, plates were frozen at −20 °C until use. Plates were then thawed for 2 h at room temperature, and 100 µl of each homogenised culture was transferred to a well of a 96-well flat-bottom sterile black plate (Nunc, Inc., Rochester, NY) that contained 100 µl of the SYBR Green I lysis buffer (2xSYBR Green, 20 mM Tris base pH 7.5, 5 mM EDTA, 0.008% w/v saponin, 0.08% w/v Triton X-100). […] Plates were incubated for 1 h at room temperature and then read on a fluorescence plate reader (Tecan, Grödig, Austria) using excitation and emission wavelengths of 485 and 535 nm, respectively. IC50 values were calculated by non-linear regression analysis of data from dose-response curves, using TableCurve 2D version 5.0 software (Systat Software, San Jose, CA). IC50 values are reported as means calculated from three independent experiments.

[11] = 2 μM compound, 0.2 μM oligonucleotide
[12] = chloroquine-sensitive strain 3D7, 48 h incubation

SMILES | ΔTm F21T [1, 11] [°C] | ΔTm FdxT [2, 11] [°C] | IC50 [3] [nM] | ΔTm FPf1T [4, 11] [°C] | IC50 [5] [nM] | ΔTm FPf8T [6, 11] [°C] | IC50 [7, 12] [nM] | CC50 at 72 h [8] [nM] | ΔTm FtrypBT [9, 11] [°C] | melting point [°C] | further results
c1ccc2c(-c3ccc(CNCCN4CCOCC4)cc3)nc(-c3ccc(CNCCN4CCOCC4)cc3)nc2c1 [Compound 3g, 2,4-Bis{4-[(2-morpholinoethyl)aminomethyl]phenyl}quinazoline] | 4.2 ± 2.1 | 0.3 ± 0.2 | ≥ 10000 | 1.4 ± 0.1 | 1270 ± 632 | 1.2 ± 0.4 | 150 ± 27 | 4080 ± 600 | 1.0 ± 0.5 |  | 
CN(C)CCCNCc1ccc(-c2nc(-c3ccc(CNCCCN(C)C)cc3)c3ccccc3n2)cc1 [Compound 3b, 2,4-Bis{4-[(3-dimethylaminopropyl)aminomethyl]phenyl}quinazoline] | 13.2 ± 0.3 | 0.1 ± 0.1 | ≥ 10000 | 11.6 ± 1.1 | 1180 ± 57 | 11.2 ± 0.8 | 620 ± 77 | 4010 ± 800 | 10.0 ± 0.4 |  | 
c1ccc2c(-c3ccc(CNCCCN4CCOCC4)cc3)nc(-c3ccc(CNCCCN4CCOCC4)cc3)nc2c1 [Compound 3f, 2,4-Bis{4-[(3-morpholinopropyl)aminomethyl]phenyl}quinazoline] | 3.1 ± 0.5 | −0.2 ± 0.2 | ≥ 10000 | 3.3 ± 0.3 | 810 ± 63 | 2.9 ± 0.3 | 420 ± 83 | 4520 ± 400 | 2.8 ± 0.1 |  | 
OC(c1cc(C(F)(F)F)nc2c(C(F)(F)F)cccc12)C1CCCCN1 (stereo not drawn) [Mefloquine, reference compound] |  |  |  |  |  |  | 60 ± 3 |  |  |  | ΔTm F21T ([1]; tested at 1 μM): 2.6 ± 0.5 °C; ΔTm FPf1T ([4]; tested at 1 μM): 3.1 ± 0.5 °C; ΔTm FPf8T ([6]; tested at 1 μM): 6.6 ± 2.3 °C; IC50 ([10]; chloroquine-resistant strain W2, 48 h incubation): 16 ± 2 nM
c1cc(CNCCCN2CCOCC2)cc(-c2cc(-c3cccc(CNCCCN4CCOCC4)c3)c3ccccc3n2)c1 [Compound 1s, 2,4-Bis{3-[(3-morpholinopropyl)aminomethyl]phenyl}quinoline] | 2.5 ± 0.1 | −1.5 ± 0.4 | ≥ 10000 | 3.0 ± 0.4 | 730 ± 264 | 2.8 ± 0.5 | 210 ± 40 | 2630 ± 500 | 1.8 ± 0.7 |  | 
C[n+]1cc(NC(=O)c2ccc3ccc4ccc(C(=O)Nc5cc6ccccc6[n+](C)c5)nc4c3n2)cc2ccccc21 [PhenDC3, reference compound] |  |  |  |  |  |  |  |  |  |  | ΔTm F21T ([1]; tested at 0.5 μM): 26.3 ± 0.1 °C; ΔTm FdxT ([2]; tested at 0.5 μM): 0.1 ± 0.2 °C; ΔTm FPf1T ([4]; tested at 0.5 μM): 24.6 ± 0.1 °C; ΔTm FPf8T ([6]; tested at 0.5 μM): 24.7 ± 0.2 °C; ΔTm FtrypBT ([9]; tested at 0.5 μM): 19.2 ± 0.2 °C
COc1ccc2c(-c3ccc(CNCCCN(C)C)cc3)nc(-c3ccc(CNCCCN(C)C)cc3)cc2c1 (as salt: (cooh)2) [Compound 2j, 6-Methoxy-1,3-bis{4-[(3-dimethylaminopropyl)aminomethyl]phenyl}isoquinoline] |  |  |  |  |  |  |  |  |  | 171 to 173 | 
COc1ccc2c(-c3ccc(CNCCCCN4CCN(C)CC4)cc3)nc(-c3ccc(CNCCCCN4CCN(C)CC4)cc3)cc2c1 (as salt: (cooh)2) [Compound 2k, 6-Methoxy-1,3-bis{4-[(4–(4-methylpiperazin-1-yl)butyl)aminomethyl]phenyl}isoquinoline] |  |  |  |  |  |  |  |  |  | 216 to 218 | 
c1ccc2c(-c3ccc(CNCCCN4CCOCC4)cc3)cc(-c3ccc(CNCCCN4CCOCC4)cc3)nc2c1 [Compound 1g, 2,4-Bis{4-[(3-morpholinopropyl)aminomethyl]phenyl}quinoline] | 7.1 ± 2.7 | −1.8 ± 0.4 | ≥ 10000 | 3.7 ± 0.3 | 380 ± 45 | 3.7 ± 0.6 | 99 ± 7 | 1470 ± 300 | 2.0 ± 0.2 |  | 
CCN(CC)CCCC(C)Nc1ccnc2cc(Cl)ccc12 (stereo not drawn) [Chloroquine, reference compound] |  |  |  |  |  |  |  |  |  |  | ΔTm F21T ([1]; tested at 1 μM): 2.4 ± 1.1 °C; ΔTm FPf1T ([4]; tested at 1 μM): 1.9 ± 0.1 °C; ΔTm FPf8T ([6]; tested at 1 μM): 2.4 ± 1.2 °C; IC50 ([7]; 3D7, 48 h): 110 ± 10 nM; IC50 ([10]; W2, 48 h): 400 ± 40 nM
c1cc(CNCCN2CCOCC2)cc(-c2cc(-c3cccc(CNCCN4CCOCC4)c3)c3ccccc3n2)c1 [Compound 1t, 2,4-Bis{3-[(2-morpholinoethyl)aminomethyl]phenyl}quinoline] | 0.3 ± 0.3 | −1.6 ± 0.4 | ≥ 10000 | 0.9 ± 0.2 | 460 ± 120 | 0.6 ± 0.7 | 230 ± 21 | 3930 ± 1100 | 0.6 ± 0.4 |  | 
CN(C)CCCNCc1cccc(-c2cc(-c3cccc(CNCCCN(C)C)c3)c3ccccc3n2)c1 (as salt: (cooh)2) [Compound 1q, 2,4-Bis{3-[(3-dimethylaminopropyl)aminomethyl]phenyl}quinoline] |  |  |  |  |  |  |  |  |  | 243 to 245 | 
CN(C)CCCNCc1ccc(-c2cc(-c3ccc(CNCCCN(C)C)cc3)c3ccccc3n2)cc1 (as salt: (cooh)2) [Compound 1b, 2,4-Bis{4-[(3-dimethylaminopropyl)aminomethyl]phenyl}quinoline] |  |  |  |  |  |  |  |  |  | 244 to 246 | 
CN(C)CCCNCc1ccc(-c2nc(-c3ccc(CNCCCN(C)C)cc3)c3ccccc3n2)cc1 (as salt: (cooh)2) [Compound 3b, 2,4-Bis{4-[(3-dimethylaminopropyl)aminomethyl]phenyl}quinazoline] |  |  |  |  |  |  |  |  |  | 203 to 205 | 
c1cc(CNCCN2CCOCC2)cc(-c2nc(-c3cccc(CNCCN4CCOCC4)c3)c3ccccc3n2)c1 [Compound 3v, 2,4-Bis{3-[(2-morpholinoethyl)aminomethyl]phenyl}quinazoline] | 0.1 ± 0.1 | 0.0 ± 0.0 | ≥ 10000 | 0.5 ± 0.3 | 1370 ± 658 | 0.5 ± 0.4 | 360 ± 126 | 6460 ± 1000 | 0.6 ± 0.1 |  | 
COc1ccc2cc(-c3ccc(CNCCCN(C)C)cc3)nc(-c3ccc(CNCCCN(C)C)cc3)c2c1 (as salt: (cooh)2) [Compound 2f, 7-Methoxy-1,3-bis{4-[(3-dimethylaminopropyl)aminomethyl]phenyl}isoquinoline] |  |  |  |  |  |  |  |  |  | 178 to 180 | 

From publication PMC6968685 (Journal of Enzyme Inhibition and Medicinal Chemistry, 2020)
